Assay results as given in US9505734B2, “Phenyl C-glucoside derivative containing deoxyglucose structure, preparation method and use thereof” (Tianjin Institute of Pharmaceutical Research, priority 2012, dated 2016).

Tested on: SD rats (type 2 diabetes model)
Test: model for rat urine glucose excretion (glucose-oxidase method)
Type: in vivo
Conditions: comparison in words, rat urine glucose excretion model, 6 mg/kg
Description: The health SD rats are injected intraperitoneally with multiple low doses of streptozotocin for modeling (type 2 diabetes model) after feeding with high-fat and high-sucrose diet, and the content of blood glucose is measured before and after modeling. After the modeling successful, the rats for modeling are randomly divided (8 rats/group) into one blank group (administering the same volume of 0.5% CMC sodium solution) and several groups for compounds to be tested (6 mg/kg) according to the content of 24-hour urine glucose and the body weight. Rats in each group are fasted for 16 hours before experiment. The experimental rats are administered intragastrically with glucose (2 g/kg) at 0.5 h after intragastrical administration with compounds to be tested. The urine is collected at the time-period of 0-12 h after administration, and the urine glucose values are measured at each time-period by glucose-oxidase method.
The inhibiting activity of the cocrystal of I-D1-6 and L-proline on SGLT2 is measured by the model for rat urine glucose excretion.
The health SD rats are injected intraperitoneally with multiple low doses of streptozotocin for modeling (type 2 diabetes model) after feeding with high-fat and high-sucrose diet for one month, and the content of blood glucose is measured before and after modeling. After the modeling successful, the rats for modeling are randomly divided (8 rats/group) into one blank group (administering the same volume of 0.5% CMC sodium solution) and groups of tested compound (6 mg/kg) according to the content of 24-hour urine glucose and the body weight. Rats in each group are fasted for 16 hours before experiment. The experimental rats are administered intragastrically with the glucose (2 g/kg) at 0.5 h after intragastrical administration with the cocrystal of I-D1-6 and L-proline prepared in Example 138. The urine is collected at the time-period of 0-12 h after administration, and the urine glucose values are measured at each time-period by glucose-oxidase method.

| SMILES | urine glucose excretion effect (in words) |
| --- | --- |
| CCOc1ccc(Cc2cc([C@@H]3C[C@@H](O)[C@H](O)[C@@H](CO)O3)ccc2Cl)cc1 [I-D1-2, (1S)-1-[4-chloro-3-(4-ethoxybenzyl)phenyl]-1,2-dideoxy-D-glucose] | stronger urine glucose excretion effect |
| CCOc1ccc(Cc2cc([C@@H]3O[C@H](CO)[C@@H](O)C[C@H]3O)ccc2Cl)cc1 [I-D1-3, (1S)-1-[4-chloro-3-(4-ethoxybenzyl)phenyl]-1,3-dideoxy-D-glucose] | stronger urine glucose excretion effect |
| CCOc1ccc(Cc2cc([C@@H]3O[C@H](CO)C[C@H](O)[C@H]3O)ccc2Cl)cc1 [I-D1-4, (1S)-1-[4-chloro-3-(4-ethoxybenzyl)phenyl]-1,4-dideoxy-D-glucose] | stronger urine glucose excretion effect |

Same assay, conditions: type 2 diabetes model SD rats, 6 mg/kg intragastrically, glucose 2 g/kg at 0.5 h, urine collected 0-12 h

| SMILES | Urine glucose excretion (mg/200 g body weight of the rat) |
| --- | --- |
| CCc1ccc(Cc2cc(C3OC4(CC4)C(O)C(O)C3O)ccc2C)cc1 (stereo not shown) | 609 mg/200 g body weight of the rat |
| C=C1OC(c2ccc(Cl)c(Cc3ccc(OCC)cc3)c2)C(O)C(O)C1O (stereo not shown) | 457 mg/200 g body weight of the rat |
| CCOc1ccc(Cc2cc(C3OC(OC)C(O)C(O)C3O)ccc2Cl)cc1 (stereo not shown) | 644 mg/200 g body weight of the rat |
| COc1ccc(Cc2cc(C3OC(C)C(O)C(O)C3O)ccc2C(F)(F)F)c(F)c1F (stereo not shown) | 622 mg/200 g body weight of the rat |
| CCOc1ccc(Cc2cc(C3OC(C)C(O)C(O)C3O)ccc2OC)cc1 (stereo not shown) | 688 mg/200 g body weight of the rat |
| COc1ccc(Cc2cc(C(C)C)cc(C3OC(C)C(O)C(O)C3O)c2)c(F)c1 (stereo not shown) | 523 mg/200 g body weight of the rat |
| C#Cc1ccc(Cc2cc(C3OC(C)C(O)C(O)C3O)ccc2Cl)cc1 (stereo not shown) | 671 mg/200 g body weight of the rat |
| CCc1ccc(Cc2cc(C3OC(C)C(O)C(O)C3O)ccc2C)cc1 (stereo not shown) | 613 mg/200 g body weight of the rat |
| COc1ccc(Cc2cc(C3OC(CO)CC(O)C3O)ccc2Cl)cc1 (stereo not shown) | 310 mg/200 g body weight of the rat |
| C#Cc1ccc(Cc2cc(C3OC(CO)CC(O)C3O)ccc2OC)cc1 (stereo not shown) | 328 mg/200 g body weight of the rat |
| CCc1ccc(Cc2cc(C3OC(CO)C(O)CC3O)ccc2C)cc1 (stereo not shown) | 230 mg/200 g body weight of the rat |
| CCOc1ccc(Cc2cc(C3OC(C)(C)C(O)C(O)C3O)ccc2Cl)cc1 (stereo not shown) | 470 mg/200 g body weight of the rat |
| C=C1OC(c2ccc(Cl)c(Cc3ccc(OC)cc3)c2)C(O)C(O)C1O (stereo not shown) | 410 mg/200 g body weight of the rat |
| CCCCOc1ccc(Cc2cc(C3OC(C)C(O)C(O)C3O)ccc2Cl)cc1 (stereo not shown) | 721 mg/200 g body weight of the rat |
| COc1ccc(Cc2cc(C)cc(C3OC(C)C(O)C(O)C3O)c2)cc1F (stereo not shown) | 539 mg/200 g body weight of the rat |
| CCc1ccc(Cc2cc(C3OC(C)C(O)C(O)C3O)ccc2OC)cc1 (stereo not shown) | 439 mg/200 g body weight of the rat |
| COc1ccc(Cc2cc(C3OC(CO)CC(O)C3O)ccc2Cl)c(F)c1 (stereo not shown) | 288 mg/200 g body weight of the rat |
| C#Cc1ccc(Cc2cc(C3OC(CO)CC(O)C3O)ccc2Cl)cc1 (stereo not shown) | 213 mg/200 g body weight of the rat |
| CCc1ccc(Cc2cc(C3CC(O)C(O)C(CO)O3)ccc2C)cc1 (stereo not shown) | 378 mg/200 g body weight of the rat |
| CCc1ccc(Cc2cc(C3OC(CO)C(O)CC3O)ccc2Cl)cc1 (stereo not shown) | 198 mg/200 g body weight of the rat |
| COc1ccc(Cc2cc(C3OC(CO)C(O)CC3O)ccc2Cl)cc1 (stereo not shown) | 235 mg/200 g body weight of the rat |
| Cc1ccc(C2OC(C)C(O)C(O)C2O)cc1Cc1ccc(OC2CCOC2)cc1 (stereo not shown) | 611 mg/200 g body weight of the rat |
| CCc1ccc(Cc2cc(C3CC(O)C(O)C(CO)O3)ccc2Cl)cc1 (stereo not shown) | 412 mg/200 g body weight of the rat |
| COc1ccc(Cc2cc(C3CC(O)C(O)C(CO)O3)ccc2Cl)cc1 (stereo not shown) | 426 mg/200 g body weight of the rat |
| CCOc1ccc(Cc2cc(C3OC(CO)C(O)C(O)C3O)ccc2Cl)cc1 (stereo not shown) [drawing 194] | 743 mg/200 g body weight of the rat |
| OCC1OC(c2ccc(F)c(Cc3cc4ccccc4s3)c2)C(O)C(O)C1O (stereo not shown) [drawing 195] | 621 mg/200 g body weight of the rat |

| SMILES | Urine glucose excretion (mg/200 g body weight of the rat) |
| --- | --- |
| Cc1ccc(C2OC(CO)C(O)C(O)C2O)cc1Cc1ccc(-c2ccc(F)cc2)s1 (stereo not shown) [drawing 196] | 655 mg/200 g body weight of the rat |
| OCC1OC(c2ccc(Cl)c(Cc3ccc(O[C@H]4CCOC4)cc3)c2)C(O)C(O)C1O (stereo partly shown) [drawing 197] | 643 mg/200 g body weight of the rat |
| CCc1ccc(Cc2c(Cl)ccc3c2COC32OC(CO)C(O)C(O)C2O)cc1 (stereo not shown) [drawing 198] | 587 mg/200 g body weight of the rat |
| CCOc1ccc(Cc2cc([C@]34OC[C@](CO)(O3)[C@@H](O)[C@H](O)[C@H]4O)ccc2Cl)cc1 [drawing 199] | 455 mg/200 g body weight of the rat |
| CCOc1ccc(Cc2cc(C3SC(CO)C(O)C(O)C3O)c(OC)cc2C)cc1 (stereo not shown) [drawing 211] | 625 mg/200 g body weight of the rat |
| COc1ccc(Cc2cc(C3OC(C)C(O)C(O)C3O)ccc2Cl)cc1 (stereo not shown) [drawing 213] | 736 mg/200 g body weight of the rat |
| CCOc1ccc(Cc2cc(C3OC(C)C(O)C(O)C3O)ccc2C)cc1 (stereo not shown) [drawing 216] | 700 mg/200 g body weight of the rat |
| CCCOc1ccc(Cc2cc(C3OC(C)C(O)C(O)C3O)ccc2Cl)cc1 (stereo not shown) [drawing 217] | 712 mg/200 g body weight of the rat |
| CCOc1ccc(Cc2cc(C3OC(C)C(O)C(O)C3O)ccc2Cl)cc1 (stereo not shown) [drawing 219] | 833 mg/200 g body weight of the rat |
| CCOc1ccc(Cc2cc(C3OC(CO)CC(O)C3O)ccc2Cl)cc1 (stereo not shown) [drawing 226] | 880 mg/200 g body weight of the rat |
| CCOc1ccc(Cc2cc(C3CC(O)C(O)C(CO)O3)ccc2Cl)cc1 (stereo not shown) [drawing 227] | 811 mg/200 g body weight of the rat |
| Cc1ccc(C2OC(CO)CC(O)C2O)cc1Cc1ccc(-c2ccc(F)cc2)s1 (stereo not shown) [drawing 228] | 801 mg/200 g body weight of the rat |
| Cc1ccc(C2CC(O)C(O)C(CO)O2)cc1Cc1ccc(-c2ccc(F)cc2)s1 (stereo not shown) [drawing 229] | 698 mg/200 g body weight of the rat |
| CC1OC(c2ccc(F)c(Cc3cc4ccccc4s3)c2)C(O)C(O)C1O (stereo not shown) [drawing 230] | 749 mg/200 g body weight of the rat |
| OCC1OC(c2ccc(Cl)c(Cc3ccc(O[C@H]4CCOC4)cc3)c2)C(O)CC1O (stereo partly shown) [drawing 231] | 721 mg/200 g body weight of the rat |
| CC1OC(c2ccc(Cl)c(Cc3ccc(O[C@H]4CCOC4)cc3)c2)C(O)C(O)C1O (stereo partly shown) [drawing 233] | 748 mg/200 g body weight of the rat |
| OCC1OC(c2ccc(Cl)c(Cc3ccc(O[C@H]4CCOC4)cc3)c2)CC(O)C1O (stereo partly shown) [drawing 234] | 744 mg/200 g body weight of the rat |
| CCOc1ccc(Cc2cc(C3OC(CO)C(O)CC3O)ccc2Cl)cc1 (stereo not shown) [drawing 237] | 828 mg/200 g body weight of the rat |
| Cc1ccc(C2OC(C)C(O)C(O)C2O)cc1Cc1ccc(-c2ccc(F)cc2)s1 (stereo not shown) [drawing 238] | 723 mg/200 g body weight of the rat |
| Cc1ccc(C2OC(CO)C(O)CC2O)cc1Cc1ccc(-c2ccc(F)cc2)s1 (stereo not shown) [drawing 239] | 772 mg/200 g body weight of the rat |
| OCC1OC(c2ccc(F)c(Cc3cc4ccccc4s3)c2)C(O)CC1O (stereo not shown) [drawing 240] | 656 mg/200 g body weight of the rat |
| OCC1CC(O)C(O)C(c2ccc(F)c(Cc3cc4ccccc4s3)c2)O1 (stereo not shown) [drawing 241] | 689 mg/200 g body weight of the rat |
| OCC1OC(c2ccc(F)c(Cc3cc4ccccc4s3)c2)CC(O)C1O (stereo not shown) [drawing 242] | 716 mg/200 g body weight of the rat |
| COc1ccc(Cc2cc(C3OC(C)C(O)C(O)C3O)ccc2Cl)cc1 (stereo not shown) [drawing 243] | 457 mg/200 g body weight of the rat |
| OCC1CC(O)C(O)C(c2ccc(Cl)c(Cc3ccc(O[C@H]4CCOC4)cc3)c2)O1 (stereo partly shown) [drawing 244] | 723 mg/200 g body weight of the rat |
| CCc1ccc(Cc2c(Cl)ccc3c2COC32OC(CO)CC(O)C2O)cc1 (stereo not shown) [drawing 245] | 634 mg/200 g body weight of the rat |
